Series [1] has as its system HER1-4. In words: Western blot of HER phosphorylation in breast cancer cells. The class given is cell-based, human. As to conditions: MCF-7 and SKBR3 cells, 26 h after stimulation. An excerpt: (§1) The association of sEcad with these RTK was also confirmed by in vitro studies. Specifically, in cell culture systems, extracts from sEcad (rhEcad/Fc:His tagged) treated E-cadherin positive MCF-7 and E-cadherin negative SKBR3 and MDA-MB-231 breast cancer cells were immunoprecipitated with HER1-4-specific antibodies and analyzed by western blotting with a His-tagged-specific antibody. Here, we detected HER1-4-sEcad, HER1-2-sEcad and HER1-sEcad interactions in MCF, SKBR3 and MDA-MB-231 breast cancer cells, respectively. […] Because ligand binding to the HER family of receptors induces the formation of homo- and heterodimers, resulting in phosphorylation on specific tyrosine residues within the cytoplasmic domain (Yarden and Siliwkowski, Nature Reviews. 2:127-137, 2001), we next used western blot assays to examine whether sEcad promotes HER phosphorylation and downstream signaling.
Immunoprecipitation assays were carried out by harvesting tissues or cells with immunoprecipitation lysis buffer (20 mM Tris-HCl, pH 7.5; 137 mM NaCl; 100 mM NaF; 10% glycerol (vol/vol); 1% (vol/vol) Nonidet P-40; 1 mM PMSF and protease inhibitor cocktail (Sigma)). After brief sonication, lysates were cleared by centrifugation at 4° C. […] Western blot images were captured using HP Scanjet G4050 and analyzed relative to G3PDH or actin using NIH Scion Image. […]

In series [2] the test system is HER1-4. In words: Immunoprecipitation of sEcad with HER receptors in breast cancer cells. The series is classed as binding, human.
Description: as §1
Immunoprecipitation assays were carried out by harvesting tissues or cells with immunoprecipitation lysis buffer (20 mM Tris-HCl, pH 7.5; 137 mM NaCl; 100 mM NaF; 10% glycerol (vol/vol); 1% (vol/vol) Nonidet P-40; 1 mM PMSF and protease inhibitor cocktail (Sigma)). After brief sonication, lysates were cleared by centrifugation at 4° C. […] The immunocomplexes were washed three times, boiled in sample buffer (60 mM Tris-Cl, pH 6.8; 2% SDS (vol/vol); 10% glycerol (vol/vol); 5% […] (vol/vol); and 0.01% bromophenol blue (vol/vol), and loaded on SDS-PAGE for protein analysis. Protein extraction in cells was performed on ice using total protein extraction buffer: 20 mM Tris pH 7.5, 137 mM NaCl, 100 mM NaF, 10% glycerol, 1% NP40, 1 mM PMSF and protease inhibitor cocktail (Sigma). For normal and tumor tissues, sEcad was extracted in an aqueous solution (PBS) and not in the protein extraction buffer. Protein concentration was measured using a BCA Protein Assay Kit (Pierce). […] Western blot images were captured using HP Scanjet G4050 and analyzed relative to G3PDH or actin using NIH Scion Image.

Series [3] relates to ERK1/2, PI3K/Akt, mTOR, p70S6K, 4EBP1. In words: Western blot of downstream MAPK-PI3K/Akt/mTOR signaling in breast cancer cell lines. The class given is cell-based, human. From the text:
We speculated that this effect may be mediated by molecular abnormalities in signaling pathways that promote cell growth downstream of HERs. Specifically, the lipid kinase phosphoinositide-3-kinase (PI3K) and the protein-serine/threonine kinases Akt, and mTOR signaling pathways are important mediators of HER receptor signaling and are causally involved in breast and other malignancies (Schmelzle and Hall, Cell 103:253-262, 2000). […] As the p70S6 kinase and eIF4E binding protein 1 (4EBP1) are among the most well characterized targets of mTOR (Schmelzle and Hall, Cell 103:253-262, 2000), we next studied the phosphorylation of p70S6K at Thr-389 and 4EBP1 at Thr-37 by western blotting.
Immunoprecipitation assays were carried out by harvesting tissues or cells with immunoprecipitation lysis buffer (20 mM Tris-HCl, pH 7.5; 137 mM NaCl; 100 mM NaF; 10% glycerol (vol/vol); 1% (vol/vol) Nonidet P-40; 1 mM PMSF and protease inhibitor cocktail (Sigma)). After brief sonication, lysates were cleared by centrifugation at 4° C. Supernatants were precleared and incubated with EGFR/HER1, HER2, HER3, HER4 or E-cadherin ectodomain-specific antibodies for 4 h and protein A/G plus agarose beads (Santa Cruz, sc-2003) for 2 h at 4° C. The immunocomplexes were washed three times, boiled in sample buffer (60 mM Tris-Cl, pH 6.8; 2% SDS (vol/vol); 10% glycerol (vol/vol); 5% […] (vol/vol); and 0.01% bromophenol blue (vol/vol), and loaded on SDS-PAGE for protein analysis. Protein extraction in cells was performed on ice using total protein extraction buffer: 20 mM Tris pH 7.5, 137 mM NaCl, 100 mM NaF, 10% glycerol, 1% NP40, 1 mM PMSF and protease inhibitor cocktail (Sigma). For normal and tumor tissues, sEcad was extracted in an aqueous solution (PBS) and not in the protein extraction buffer. Protein concentration was measured using a BCA Protein Assay Kit (Pierce). […] Western blot images were captured using HP Scanjet G4050 and analyzed relative to G3PDH or actin using NIH Scion Image. […]

Series [4] has as its system MEK1/2, ERK1/2, PI3K, Akt, mTOR, p70S6K, 4EBP1. In words: Western blot of downstream MAPK-PI3K/Akt/mTOR signaling in SCC cell lines. The series is classed as cell-based.
Description: (§3) After brief sonication, lysates were cleared by centrifugation at 4° C. […] After transfer to nitrocellulose membrane and blocking with 1% BSA, samples were probed with primary antibodies. Western blot images were captured using HP Scanjet G4050 and analyzed relative to G3PDH or actin using NIH Scion Image.
(§4) Antibodies against total HER1 and HER 4 and phosphorylated HER1-4, pPI3K, pAkt, pmTOR, p4E-BP1, pRaptor and pp70S6K obtained from Cell Signaling Technologies. Monoclonal antibodies to HER3 and HER4 were obtained from Thermo Scientific. Polyclonal antibody to the extracellular domain of E-cadherin and monoclonal antibody to α-actin were obtained from Santa Cruz Biotechnology. Monoclonal antibody to the extracellular domain of E-cadherin (DECMA-1) and to His Tag were obtained from Sigma and Abcam, respectively. Monoclonal antibody to G3PDH, ubiquitin and rat IgG1 were obtained from Ambion, Zymed and Southern Biotechnology, respectively.
The subject of series [5] is MCF-7, SKBR3 and MDA-MB-231 breast cancer cell lines. In words: BrdU proliferation in breast cancer cell lines. The class given is cell-based, human. As to the method:
(§2) For BrdU staining, cells were incubated with 10 μM BrdU for 2 h prior to fixation and processed for immunofluorescence microscopy as previously described (Brouxhon et al., Cancer Res. 67:7654-64, 2007). For BrdU analyses, cells were counted from 6 low-power fields (×100) per section. BrdU incorporation was also analyzed by a cell proliferation ELISA 5-bromo-2′-deoxyuridine (BrdU) (colorimetric) kit (Roche, Stockholm, Sweden), according to the manufacturer's instructions. Migration and invasion of cells were measured using 8.0 μm pore BD BioCoat Control Insert 24-well plates (no. 354578) and Matrigel Invasion Chamber 24-well Plates (no. 354480), respectively (BD Bioscience). Cells were collected, washed, and 2×10^5 cells were plated in 0.4% FBS medium in the top chamber, with 0-20 μg/mL of rhEcad/Fc in the bottom chamber. After 22 h, cells on the top were removed using a cotton swab. Migrated or invaded cells on the lower surface were fixed with methanol, stained with 0.5% crystal violet, examined by bright field microscopy and photographed. Migration or invasion was quantitated by counting migrated or invaded cells in at least ten random high-power fields per insert and expressed as averages. Results are presented as fold change of the number of migrated/invaded cells to the untreated controls in triplicate experiments.

The subject of series [6] is breast (MCF-7, SKBR3) cells. In words: Transwell migration of breast cancer cells. The series is classed as cell-based, human. As to conditions: MCF-7 cells, 24 h, equimolar concentrations. As to the method:
as §2, with “After 22 h, cells on the top were removed using a cotton swab.” left out

Series [7] deals with MDA-MB-231 and MCF-7 breast cancer cells. In words: Matrigel invasion of breast cancer cells. The class given is cell-based, human. Conditions: MCF-7 cells, 24 h, equimolar concentrations. The protocol:
as §2, with “After 22 h, cells on the top were removed using a cotton swab.” left out

For series [8], the system named is MMP-2 and MMP-9. In words: MMP-9 ELISA and gelatin zymography of conditioned media. Conditions: PAM212 cells; inhibitors either alone or in combination. The class given is cell-based, mouse. The protocol: Conditioned media from control or sEcad treated cells were concentrated 10-fold using Centricon devices (Millipore; Bedford, Mass.) according to the manufacturer's instructions and applied to SDS-PAGE gels containing gelatin (0.1% w/v). Gels were washed twice in renaturing buffer (Invitrogen) and incubated at 37° C. for 24 h in developing buffer (Invitrogen). Gels were stained with Coomassie blue and destained with methanol:acetic acid (50:10). Zymogram is representative of triplicate experiments.
Conditioned media from human and mouse cells were analyzed for MMP-9 using human and mouse […] Quantikine ELISA Kits and mouse MMP-9 ELISA kit (R&D Systems, Minneapolis, Minn.), according to the manufacturer's specifications, respectively. For measuring mouse MMP-9, serum-free medium was added to cell cultures and cells were exposed to increasing concentrations of sEcad (rmEcad/Fc; R&D Systems) for 24 hours. The culture media were collected and concentrated using Centrifugal Ultra Filters (Millipore, Billerica, Mass.) and MMP-9 levels were measured by ELISA. Each experiment was performed in triplicate.

Series [9] relates to skin (PAM212, CC4A, SCC12b, SCC13) and oropharyngeal (FADU) cells. In words: Transwell migration of SCC cells. The series is classed as cell-based. The protocol: as §2
The subject of series [10] is skin (SCC12b, SCC13, PAM212 and CC4A) and the head & neck FADU cell line. In words: Matrigel invasion of SCC cells. The series is classed as cell-based.
Series [11] concerns oropharyngeal FADU and skin SCC (PAM212, CC4A, SCC13 and SCC12b) cell lines. In words: Proliferation in oropharyngeal and skin SCC cell lines. The series is classed as cell-based. As to the method:
as §2

In series [12] the test system is HER1, HER2, IGF-1R. In words: Western blot of receptor phosphorylation in skin and oropharyngeal SCC cell lines. As to conditions: PAM212 cells. The series is classed as cell-based.
Description: as §3, §4
The test system of series [13] is survivin. As to conditions: HER2-positive tumors from patients; cited from earlier work.
The test system of series [14] is HER2 overexpressing BT474 cells. Conditions: cited from earlier work.
The mark [15] stands for this setting: PAM212 cells, PI3K or MEK inhibitor 20 μM.
The mark [16] stands for this setting: PAM212 skin SCC cells, HER inhibitors.

For the compound “rhEcad/Fc: Recombinant human E-cadherin Fc chimera; extracellular domain residues 155-707 fused to human IgG1 Fc, 6x histidine-tagged”, the HER1-4 phosphorylation entry in series [1] was “notably increased”. Besides, the figures for the “receptors interacting with sEcad” value in [2] (MCF-7 cells (E-cadherin positive)), in series [2] (MDA-MB-231 cells (E-cadherin negative)) and in series [2] (SKBR3 cells (E-cadherin negative)) were “HER1-4-sEcad”, “HER1-sEcad” and “HER1-2-sEcad”, respectively. Also, the “phosphorylated p70S6K (Thr-389) and 4EBP1 (Thr-37) levels” value in series [3] (MCF-7, SKBR3 cells versus untreated controls) is on record as “higher”; in [4] (PAM212, CC4A cells versus untreated controls) it was “higher”. In addition, in series [3] (MCF-7 and SKBR3 cells), the “ERK1/2, PI3K/Akt and mTOR activation” value was “activation of ERK1/2, PI3K/Akt and mTOR”. Besides, in [3] (MDA-MB-231 TNBC cells), the Akt activation result was “activation”. Further, the BrdU incorporation result in series [5] (10 and 20 μg/mL, MCF-7, SKBR3 and MDA-MB-231) is “significantly increased”. Further, the proliferation result in [5] (MCF-7 cells, 24 h, equimolar concentrations) was “significantly increased proliferation, migration and invasion”. The migration entry in [6] is “significantly increased proliferation, migration and invasion”. Also, the invasion entry in series [7] is “significantly increased proliferation, migration and invasion”.

Consider `COc1cccc(-c2cc(=O)c3ccccc3o2)c1N` [PD98059], for which the “sEcad-induced activation of MMP-2 and MMP-9” value in [8] was “significantly inhibited sEcad-induced activation of MMP-2 and MMP-9”. In [4] (PAM212 cells, inhibitor 20 μM), the “Akt phosphorylation by sEcad in the presence of the inhibitor” value was “enhanced” and the ERK1/2 phosphorylation result was “decreased ERK1/2 phosphorylation”. The mTOR/p70S6K/4EBP1 phosphorylation result in [4] (PAM212 cells, inhibitor 20 μM, even in the absence of rmEcad/Fc) is “increased”. The sEcad-induced migration entry in series [9] (setting [15]) is “blocked”. In addition, the sEcad-induced invasion entry in [10] (setting [15]) is “blocked”. Further, the “sEcad-induced PAM212 proliferation” value in series [11] (PAM212 cells, inhibitor 20 μM) is listed as “less significant effects”.

As for `CS(=O)(=O)CCNCc1ccc(-c2ccc3ncnc(Nc4ccc(OCc5cccc(F)c5)c(Cl)c4)c3c2)o1` [Lapatinib], in [12], the “sEcad-induced HER1 phosphorylation” value was “significantly down-regulated” and the “sEcad-induced HER2 phosphorylation (pHER2)” value is given as “minimal changes”. Further, the phospho-IGF-1R levels entry in [12] (in the presence of sEcad, compared to corresponding controls) is recorded as “did not alter”. In addition, the “survivin expression levels in tumors” value in series [13] is on record as “marked inhibition of survivin expression levels”. In series [14], the apoptosis result is given as “induced apoptosis” and the survivin expression entry is on record as “markedly reduced survivin expression”. Further, in series [4] (PAM212 cells), the “sEcad-induced phosphorylation of 4EBP1” value is on record as “minimal changes”; the “sEcad-induced phosphorylation of ERK1/2, Akt and p70S6K” value is “significantly down-regulated”; the “sEcad-induced phosphorylation of PI3K” value is recorded as “minimal changes”. Also, the “basal and sEcad-induced BrdU incorporation” value in [5] (breast cancer cells, Canertinib 1 μM, Lapatinib 5 μM, Gefitinib 5 μM) was “significantly reduced both basal and sEcad-induced BrdU incorporation”. In addition, the sEcad-induced migration result in series [9] (setting [16]) was “effectively inhibited sEcad-induced proliferation, migration and invasion”. Further, the sEcad-induced invasion entry in series [10] (setting [16]) is “effectively inhibited sEcad-induced proliferation, migration and invasion”. Besides, the sEcad-induced proliferation result in series [11] (setting [16]) was “effectively inhibited sEcad-induced proliferation, migration and invasion”.

The values are drawn from patent US20190008957A1, “COMBINATION THERAPIES INCLUDING INHIBITORS OF THE EXTRACELLULAR DOMAIN OF E-CADHERIN” (The Research Foundation for The State of New York, priority 2012, published 2019).
